Molecular target: T1, h5-HT4b (Homo sapiens, UniProt Q13639)
T1 construct: expressed in transfected cells; host or cells: HEK 293 (clone 9), membrane preparation
Test: 5HT4 antagonism: [3H]GR113808 binding to membranes of h5-HT4b-HEK 293 clone 9 cells
Conditions: [3H]GR113808 0.1 nM, h5-HT4b-HEK 293 membranes, 30 min at 25° C.
Procedure: h5-HT4b-HEK 293 clone 9 cells were cultured in 150 mm Petri dishes and washed twice with cold PBS. The cells were then scraped from the plates and suspended in 50 mM Tris-HCl buffer, pH 7.4 and harvested by centrifugation at 23,500 rpm for 10 minutes. The pellet was resuspended in 5 mM Tris-HCl, pH 7.4 and homogenized with an Ultra Turrax homogenizer. The membranes were collected by centrifugation at 30,000 rpm for 20 min, resuspended in 50 mM Tris-HCl pH 7.4 and stored at −80° C. For the experiment, assay mixtures (0.5 ml) contained 50 μl of the tritiated ligand (5-HT4 antagonist [^3H]GR113808 0.1 nM) and 0.4 ml membrane preparation (15 μg protein/ml). 50 μl of 10% DMSO was added for total binding. 50 μl of 1 μM of (+)-trans-(1-butyl-3-hydroxy4-piperidinyl)methyl 8-amino-7-chloro-2,3-dihydro-1,4-benzodioxin-5-carboxylate (a proprietary 5HT4 agonist of Janssen Pharmaceutica) was added for determination of non-specific binding.
The [^3H]GR113808 assay buffer was 50 mM HEPES-NaOH, pH 7.4. The mixtures were incubated for 30 min at 25° C. The incubation was terminated by filtration over a Unifilter 96 GF/B presoaked in 0.1% polyethylenimine, followed by six washing steps with 50 mM HEPES-NaOH, pH 7.4.

T1 sequence (Q13639 whole entry): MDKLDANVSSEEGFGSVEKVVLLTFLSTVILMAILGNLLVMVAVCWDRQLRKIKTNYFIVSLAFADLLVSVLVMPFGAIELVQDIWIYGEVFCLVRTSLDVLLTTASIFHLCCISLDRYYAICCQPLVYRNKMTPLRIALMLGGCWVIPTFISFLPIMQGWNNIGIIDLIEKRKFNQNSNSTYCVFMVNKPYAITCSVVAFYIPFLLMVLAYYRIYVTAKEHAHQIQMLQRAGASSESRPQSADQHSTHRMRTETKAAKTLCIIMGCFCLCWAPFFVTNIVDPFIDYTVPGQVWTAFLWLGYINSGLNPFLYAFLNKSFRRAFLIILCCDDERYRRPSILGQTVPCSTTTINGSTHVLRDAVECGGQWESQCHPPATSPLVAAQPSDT

| IC50 | Structure (SMILES) |
| --- | --- |
| 5.89 nM | COc1ccc(C(=O)NC[C@@H]2CCN(CCCC(N)=O)C[C@H]2O)c2c1OCCO2 [compound 139] |
| 0.603 nM | Cc1ccc(C(=O)NC[C@@H]2CCN(CCCOc3ccc(S(N)(=O)=O)cc3)C[C@H]2O)c2c1OCCCO2 [compound 105] |
| 23.4 nM | CO[C@@H]1CNCC[C@H]1CNC(=O)c1cc(Cl)c(Br)c2c1OCCCO2 [compound 35] |
| 11.2 nM | COc1ccc(C(=O)NCC2(O)CCN(CCCC#N)CC2)c2c1OCCCO2 [compound 133] |
| 8.13 nM | CO[C@@H]1CNCC[C@H]1CNC(=O)c1cc(Cl)c(Cl)c2c1OCCCO2 [compound 49] |
| 8.71 nM | COc1ccc(C(=O)NC[C@@H]2CCN(CC3CCCO3)C[C@H]2O)c2c1OCCCO2 (some centres unmarked) [compound 103] |
| 7.24 nM | COc1ccc(C(=O)NC[C@@H]2CCN(CCCO)C[C@H]2O)c2c1OCCCO2 [compound 99] |
| 1.86 nM | Cc1ccc(C(=O)NC[C@@H]2CCN(CCCC#N)C[C@H]2O)c2c1OCCCO2 [compound 94] |
| 7.94 nM | COc1c(Cl)cc(C(=O)NC[C@@H]2CCN(CC3OCCO3)C[C@H]2O)c2c1OCCO2 [compound 9] |
| 23.4 nM | CNCCCCN1CC[C@@H](CNC(=O)c2cc(Cl)c(OC)c3c2OCCO3)[C@H](O)C1 [compound 43] |
| 1.7 nM | Cc1ccc(C(=O)NC[C@@H]2CCN(CCCO)C[C@H]2O)c2c1OCCCO2 [compound 3] |
| 21.9 nM | COCCCN1CC[C@@H](CNC(=O)c2cc(Cl)c(OC)c3c2OCCO3)[C@H](OC)C1 [compound 76] |
| 7.41 nM | CO[C@@H]1CN(CCCO)CC[C@H]1CNC(=O)c1cc(Cl)c(Br)c2c1OCCCO2 [compound 45] |
| 3.89 nM | CO[C@@H]1CN(CCCC#N)CC[C@H]1CNC(=O)c1cc(Cl)c(Cl)c2c1OCCCO2 [compound 56] |
| 3.09 nM | O=C(NC[C@@H]1CCN(CCOCCO)C[C@H]1O)c1cc(Cl)c(Br)c2c1OCCCO2 [compound 25] |
| 13.5 nM | CC(C)n1ccn(CCN2CC[C@@H](CNC(=O)c3cc(Cl)c(Br)c4c3OCCCO4)[C@H](O)C2)c1=O [compound 91] |
| 57.5 nM | CNCCN1CC[C@@H](CNC(=O)c2cc(Cl)c(Br)c3c2OCCCO3)[C@H](OC)C1 [compound 48] |
| 1.41 nM | CCCCN1CC[C@@H](CNC(=O)c2cc(Cl)c(Br)c3c2OCCCO3)[C@H](O)C1 [compound 22] |
| 6.46 nM | COCCCN1CC[C@@H](CNC(=O)c2cc(Cl)c(OC)c3c2OCCO3)[C@H](O)C1 [compound 6] |
| 3.24 nM | COc1ccc(C(=O)NC[C@@H]2CCN(CCCCC(N)=O)C[C@H]2O)c2c1OCCO2 [compound 125] |
| 155 nM | COc1ccc(C(=O)NC[C@H]2CCN(CCCC#N)C[C@H]2O)c2c1OCCCO2 [compound 137] |
| 11 nM | CCCCN1CC[C@@H](CNC(=O)c2ccc(OC)c3c2OCCCO3)[C@H](OC)C1 [compound 123] |
| 1.78 nM | Cc1ccc(C(=O)NC[C@@H]2CCN(CCOc3ccc(S(N)(=O)=O)cc3)C[C@H]2O)c2c1OCCCO2 [compound 108] |
| 5.13 nM | CO[C@@H]1CN(CCOCCO)CC[C@H]1CNC(=O)c1cc(Cl)c(Br)c2c1OCCCO2 [compound 51] |

| IC50 | Structure (SMILES) |
| --- | --- |
| 5.37 nM | CNCCCN1CC[C@@H](CNC(=O)c2cc(Cl)c(Cl)c3c2OCCCO3)[C@H](OC)C1 [compound 74] |
| 6.03 nM | CO[C@@H]1CN(CCC2OCCO2)CC[C@H]1CNC(=O)c1cc(Cl)c(Br)c2c1OCCCO2 [compound 46] |
| 3.63 nM | O=C(NC[C@@H]1CCNC[C@H]1O)c1cc(Cl)c(Cl)c2c1OCCCO2 [compound 20] |
| 9.55 nM | COc1c(Cl)cc(C(=O)NC[C@@H]2CCN(CCOCCO)C[C@H]2O)c2c1OCCO2 [compound 15] |
| 490 nM | CNCCCN1CC[C@@H](CNC(=O)c2cc(Cl)c(OC)c3c2OCCCO3)[C@H](OC)C1 [compound 62] |
| 20.4 nM | COc1ccc(C(=O)NC[C@@H]2CCN(CCCO)C[C@H]2OC)c2c1OCCO2 [compound 119] |
| 12.6 nM | COc1c(Cl)cc(C(=O)NC[C@@H]2CCN(CCCC#N)C[C@H]2O)c2c1OCCO2 [compound 30] |
| 3.89 nM | O=C(NC[C@@H]1CCN(CC2CCCO2)C[C@H]1O)c1cc(Cl)c(Br)c2c1OCCCO2 (some centres unmarked) [compound 39] |
| 1.55 nM | CNCCCCN1CC[C@@H](CNC(=O)c2cc(Cl)c(Br)c3c2OCCCO3)[C@H](O)C1 [compound 64] |
| 14.1 nM | CNCCCCN1CC[C@@H](CNC(=O)c2cc(Cl)c(OC)c3c2OCCCO3)[C@H](O)C1 [compound 40] |
| 1 nM | CCCCN1CC[C@@H](CNC(=O)c2ccc(F)c3c2OCCCO3)[C@H](O)C1 [compound 131] |
| 214 nM | CCCCN1CC[C@H](CNC(=O)c2ccc(OC)c3c2OCCCO3)[C@H](O)C1 [compound 141] |
| 501 nM | COc1ccc(C(=O)NCC2(O)CCN(CCCC(N)=O)CC2)c2c1OCCCO2 [compound 147] |
| 24.5 nM | COCCCN1CC[C@@H](CNC(=O)c2ccc(OC)c3c2OCCCO3)[C@H](OC)C1 [compound 124] |
| 6.46 nM | CNCCCCN1CC[C@@H](CNC(=O)c2ccc(OC)c3c2OCCCO3)[C@H](O)C1 [compound 102] |
| 30.9 nM | COc1c(Cl)cc(C(=O)NC[C@@H]2CCN(CCC3OCCO3)C[C@H]2OC)c2c1OCCO2 [compound 87] |
| 1.78 nM | O=C(NC[C@@H]1CCN(CCCO)C[C@H]1O)c1cc(Cl)c(Br)c2c1OCCCO2 [compound 24] |
| 1.17 nM | O=C(NC[C@@H]1CCN(CCCCO)C[C@H]1O)c1ccc(F)c2c1OCCCO2 [compound 143] |
| 27.5 nM | CNCCN1CC[C@@H](CNC(=O)c2cc(Cl)c(Br)c3c2OCCCO3)[C@H](O)C1 [compound 42] |
| 7.94 nM | COc1ccc(C(=O)NC[C@@H]2CCN(CCCS(C)(=O)=O)C[C@H]2O)c2c1OCCCO2 [compound 126] |
| 4.37 nM | CO[C@@H]1CN(CC2CCCO2)CC[C@H]1CNC(=O)c1cc(Cl)c(Br)c2c1OCCCO2 (some centres unmarked) [compound 50] |
| 3.09 nM | CO[C@@H]1CN(CCCO)CC[C@H]1CNC(=O)c1cc(Cl)c(Cl)c2c1OCCCO2 [compound 75] |
| 22.4 nM | COCCCN1CC[C@@H](CNC(=O)c2cc(Cl)c(OC)c3c2OCCCO3)[C@H](OC)C1 [compound 67] |
| 6.17 nM | COc1ccc(C(=O)NC[C@@H]2CCN(CCCC#N)C[C@H]2O)c2c1OCCO2 [compound 138] |

| IC50 | Structure (SMILES) |
| --- | --- |
| 79.4 nM | COc1c(Cl)cc(C(=O)NC[C@@H]2CCN(CCCC#N)C[C@H]2OC)c2c1OCCCO2 [compound 69] |
| 8.71 nM | COc1c(Cl)cc(C(=O)NC[C@@H]2CCN(CC3CCCO3)C[C@H]2O)c2c1OCCO2 (some centres unmarked) [compound 32] |
| 1.02 nM | Cc1ccc(C(=O)NC[C@@H]2CCN(CC3CCCO3)C[C@H]2O)c2c1OCCCO2 (some centres unmarked) [compound 95] |
| 2.63 nM | COCCCN1CC[C@@H](CNC(=O)c2ccc(OC)c3c2OCCCO3)[C@H](O)C1 [compound 98] |
| 28.2 nM | Cc1ccc(C(=O)NC[C@@H]2CCNC[C@H]2O)c2c1OCCCO2 [compound 104] |
| 21.4 nM | COc1c(Cl)cc(C(=O)NC[C@@H]2CCN(CCC3OCCO3)C[C@H]2OC)c2c1OCCCO2 [compound 72] |
| 7.08 nM | COc1c(Cl)cc(C(=O)NC[C@@H]2CCN(CCC3OCCO3)C[C@H]2O)c2c1OCCO2 [compound 31] |
| 28.8 nM | CNCCCN1CC[C@@H](CNC(=O)c2cc(Cl)c(OC)c3c2OCCO3)[C@H](O)C1 [compound 44] |
| 5.37 nM | COc1c(Cl)cc(C(=O)NC[C@@H]2CCN(CCCO)C[C@H]2O)c2c1OCCCO2 [compound 13] |
| 2.69 nM | CNCCCN1CC[C@@H](CNC(=O)c2cc(Cl)c(Cl)c3c2OCCCO3)[C@H](O)C1 [compound 85] |
| 263 nM | COc1c(Cl)cc(C(=O)NC[C@@H]2CCN(CCn3ccn(C(C)C)c3=O)C[C@H]2OC)c2c1OCCO2 [compound 70] |
| 2.63 nM | COCCCN1CC[C@@H](CNC(=O)c2cc(Cl)c(OC)c3c2OCCCO3)[C@H](O)C1 [compound 14] |
| 3.89 nM | COc1ccc(C(=O)NC[C@@H]2CCN(CCCCNc3nccnc3C)C[C@H]2O)c2c1OCCCO2 [compound 130] |
| 2.34 nM | CCCCN1CC[C@@H](CNC(=O)c2cc(Cl)c(Br)c3c2OCCCO3)[C@H](OC)C1 [compound 58] |
| 5.25 nM | CNCCN1CC[C@@H](CNC(=O)c2cc(Cl)c(Cl)c3c2OCCCO3)[C@H](OC)C1 [compound 84] |
| 9.77 nM | CNCCCN1CC[C@@H](CNC(=O)c2cc(Cl)c(Br)c3c2OCCCO3)[C@H](OC)C1 [compound 63] |
| 17.4 nM | COc1c(Cl)cc(C(=O)NC[C@@H]2CCN(CCOCCO)C[C@H]2O)c2c1OCCCO2 [compound 23] |
| 16.2 nM | COc1c(Cl)cc(C(=O)NC[C@@H]2CCN(CC3CCCO3)C[C@H]2OC)c2c1OCCO2 (some centres unmarked) [compound 41] |
| 3.39 nM | COCCCCN1CC[C@@H](CNC(=O)c2ccc(OC)c3c2OCCCO3)[C@H](O)C1 [compound 129] |
| 64.6 nM | CNCCN1CC[C@@H](CNC(=O)c2cc(Cl)c(OC)c3c2OCCO3)[C@H](O)C1 [compound 83] |
| 4.9 nM | COCCCN1CC[C@@H](CNC(=O)c2cc(Cl)c(Br)c3c2OCCCO3)[C@H](OC)C1 [compound 54] |
| 2.63 nM | CCCCN1CC[C@@H](CNC(=O)c2ccc(OC)c3c2OCCO3)[C@H](O)C1 [compound 114] |
| 0.912 nM | COc1ccc(C(=O)NC[C@@H]2CCN(CCCNS(C)(=O)=O)C[C@H]2OC)c2c1OCCCO2 [compound 134] |

— patent US7635706B2, “5HT4-antagonistic 4-(aminomethyl)-piperidine benzamides” (Janssen Pharmaceutica NV, priority 2003, dated 2009)
